Measured values as given in patent US20250115597A1, “TYK2 INHIBITORS AND COMPOSITIONS AND METHODS THEREOF” (LYNK PHARMACEUTICALS CO. LTD., priority 2021, published 2025).
≈ marks a conversion by molar mass, not a printed value. Like-named read-outs stand apart in the source and are kept apart here.

Columns and labels:
TYK2-JH2 domain = target: T1, TYK2-JH2 domain (Homo sapiens, UniProt P29597); experiment: Binding activity test for JH2 domain of TYK2 (Tb-antibody/tracer FRET); settings: for JAK1/TYK2 selectivity: ratio JAK1-JH2 IC50 / TYK2-JH2 IC50
T1 construct: IC50 on JH2 domain activity (nM)
In short: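 Compounds tested as 11-point 3-fold serial dilutions against the JH2 domain in a Tb-antibody/tracer FRET binding format. Plates incubated 60 min at 25° C, then overnight at 4° C, before FRET reading.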

JAK2 = target: T2, JAK2 (Homo sapiens, UniProt O60674); experiment: JAK2 kinase activity, microfluidic assay (Caliper EZ Reader II); format: biochemical; settings: JAK2 0.125 nM, 1 mM ATP
T2 construct: purchased Carna Biosciences
In short: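 Human JAK1, JAK2 or TYK2 enzyme was used in 50 mM HEPES, 10 mM MgCl2, 2 mM DTT and 0.01% Brij35, tuned to 10% conversion of a FAM-labelled peptide. Threefold dilutions of compound (top 5 µM, 1% DMSO) were pre-incubated with enzyme for 10 min, and reactions were stopped with EDTA. Phosphorylation was read by microfluidic mobility shift, and IC50 came from percent-inhibition curves.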

[1] = Microsomal metabolic stability assay; format: in vitro ADME; settings: pH 7.4, 0.5 mg/mL protein, 1 μM compound
In short: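 Test article at 1 μM with 0.5 mg/mL microsomal protein and 2 mM NADPH, in 100 mM potassium phosphate pH 7.4 with 1.0 mM EDTA at 37 °C. Sampled at 0–45 min and quantified by LC/MS/MS. T1/2 from the slope of ln % remaining vs time.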

[2] = Plasma protein binding by equilibrium dialysis; format: in vitro ADME; settings: human plasma, equilibrium dialysis 5 hours at 37° C.; read-out: % Bound (human) (converted)
In short: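 Compound spiked into plasma at 0.2 and 2 μM was dialyzed against PBS for 5 h at 37° C with shaking, in duplicate. Plasma and buffer chambers were matrix-matched, protein-precipitated and analysed by LC-MS/MS to derive % unbound, % bound and % recovery.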

Kinetic solubility = format: physicochemical; settings: phosphate buffer, aqueous buffer, kinetic from dmso stock, PBS (pH 7.4), 1% DMSO, room temperature
Procedure: Aliquots of 8 μL of reference and test compound stock solutions (10 mM/5 mM) are added into 792 μL of 100 mM pH 7.4 phosphate buffer. The final DMSO concentration is 1%. Sample tubes are shaken for 2 hours at 1000 rpm at room temperature. Samples are centrifuged at 12000 rpm for 10 min to precipitate un-dissolved particles. And transfer the supernatants to a new tube or plate. Add 5 μL of samples (no diluted, 10 times diluted and 100 times diluted) and standard curve samples to 95 μL of ACN containing IS for LC-MS/MS analysis.

[3] = dog liver microsomes, read-out: Dog LM Clint
[4] = dog liver microsomes, read-out: Dog LM T½
[5] = human liver microsomes, read-out: Human LM Clint
[6] = human liver microsomes, read-out: Human LM T½
[7] = rat liver microsomes, read-out: Rat LM Clint
[8] = rat liver microsomes, read-out: Rat LM T½

T1 sequence (P29597 589-875 limits assumed): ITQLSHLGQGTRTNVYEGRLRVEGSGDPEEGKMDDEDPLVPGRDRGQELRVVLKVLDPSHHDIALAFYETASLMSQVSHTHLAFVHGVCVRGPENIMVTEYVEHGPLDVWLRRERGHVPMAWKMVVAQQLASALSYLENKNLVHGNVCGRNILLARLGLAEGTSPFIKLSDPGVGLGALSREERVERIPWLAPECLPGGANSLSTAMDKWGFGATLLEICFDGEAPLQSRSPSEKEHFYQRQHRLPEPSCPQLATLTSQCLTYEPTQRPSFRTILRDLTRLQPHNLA
T2 sequence (O60674 whole entry): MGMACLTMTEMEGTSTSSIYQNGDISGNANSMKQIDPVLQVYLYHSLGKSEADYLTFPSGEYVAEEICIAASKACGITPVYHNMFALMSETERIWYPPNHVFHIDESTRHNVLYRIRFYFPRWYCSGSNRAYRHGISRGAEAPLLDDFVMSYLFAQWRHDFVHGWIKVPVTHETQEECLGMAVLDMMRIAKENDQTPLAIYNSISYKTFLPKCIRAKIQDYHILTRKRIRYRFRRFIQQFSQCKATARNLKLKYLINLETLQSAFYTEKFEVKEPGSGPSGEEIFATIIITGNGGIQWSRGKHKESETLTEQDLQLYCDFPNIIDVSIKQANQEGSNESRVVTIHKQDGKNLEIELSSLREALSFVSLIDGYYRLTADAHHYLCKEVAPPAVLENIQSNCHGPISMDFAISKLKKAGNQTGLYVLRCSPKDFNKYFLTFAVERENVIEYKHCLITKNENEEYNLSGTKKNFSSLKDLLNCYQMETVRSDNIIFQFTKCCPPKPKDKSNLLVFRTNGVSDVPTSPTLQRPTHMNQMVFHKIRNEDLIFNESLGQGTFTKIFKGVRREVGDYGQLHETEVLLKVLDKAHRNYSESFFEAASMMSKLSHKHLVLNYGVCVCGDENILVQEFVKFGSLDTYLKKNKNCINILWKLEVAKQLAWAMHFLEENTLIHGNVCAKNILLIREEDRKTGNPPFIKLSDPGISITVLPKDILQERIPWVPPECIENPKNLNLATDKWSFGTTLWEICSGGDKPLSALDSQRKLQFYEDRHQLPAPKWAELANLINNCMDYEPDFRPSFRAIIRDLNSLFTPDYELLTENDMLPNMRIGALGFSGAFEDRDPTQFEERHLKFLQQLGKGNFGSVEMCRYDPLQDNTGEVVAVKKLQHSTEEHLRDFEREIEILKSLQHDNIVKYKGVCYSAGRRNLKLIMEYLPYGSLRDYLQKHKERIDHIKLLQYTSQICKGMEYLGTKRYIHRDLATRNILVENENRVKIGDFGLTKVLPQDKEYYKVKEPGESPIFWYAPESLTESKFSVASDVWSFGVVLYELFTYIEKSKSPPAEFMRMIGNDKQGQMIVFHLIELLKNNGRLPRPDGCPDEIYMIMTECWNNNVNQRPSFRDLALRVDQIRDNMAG

SMILES: [2H]C([2H])([2H])NC(=O)c1cnc(NC(=O)C2CC2)cc1Nc1ccc2cnn(CC)c2c1OC [Example 44, 6-(Cyclopropanecarboxamido)-4-((1-ethyl-7-methoxy-1H-indazol-6-yl)amino)-N-(methyl-d3)nicotinamide]
- IC50 (TYK2-JH2 domain): 0.286 nM
- JAK1/TYK2 selectivity (TYK2-JH2 domain): 34.6
- IC50 (JAK2): > 5000 nM
- microsomal CLint at 1 μM [1, 3]: 66.8 µL/min/mg
- half-life at 1 μM [1, 4]: 20.7 min
- microsomal CLint at 1 μM [1, 5]: 19.4 µL/min/mg
- half-life at 1 μM [1, 6]: 71.5 min
- microsomal CLint at 1 μM [1, 7]: 111 µL/min/mg
- half-life at 1 μM [1, 8]: 12.5 min
- fraction unbound at 5 h [2]: 0.068
- solubility at 2 h (Kinetic solubility): 38.7 µM (≈ 15.9 µg/mL)

SMILES: [2H]C([2H])([2H])NC(=O)c1cnc(NC(=O)C2CC2)cc1Nc1ncc2cnn(CC)c2c1OC [Example 262, 6-(Cyclopropanecarboxamido)-4-((1-ethyl-7-methoxy-1H-pyrazolo[4,3-c]pyridin-6-yl)amino)-N-(methyl-d3)nicotinamide]
- IC50 (TYK2-JH2 domain): 0.22 nM
- JAK1/TYK2 selectivity (TYK2-JH2 domain): 67.1
- IC50 (JAK2): > 5000 nM
- fraction unbound at 5 h [2]: 0.124
- solubility at 2 h (Kinetic solubility): 17.6 µM (≈ 7.28 µg/mL)

SMILES: [2H]C([2H])([2H])NC(=O)c1cnc(NC(=O)C2CC2)cc1Nc1ccn2ncc(C#N)c2c1OC [Example 165, 4-((3-Cyano-4-methoxypyrazolo[1,5-a]pyridin-5-yl)amino)-6-(cyclopropanecarboxamido)-N-(methyl-d3)nicotinamide]
- IC50 (TYK2-JH2 domain): 0.278 nM
- JAK1/TYK2 selectivity (TYK2-JH2 domain): 67.0
- IC50 (JAK2): > 5000 nM
- microsomal CLint at 1 μM [1, 3]: 14.3 µL/min/mg
- half-life at 1 μM [1, 4]: 99.7 min
- microsomal CLint at 1 μM [1, 5]: 36.9 µL/min/mg
- half-life at 1 μM [1, 6]: 38 min
- microsomal CLint at 1 μM [1, 7]: 43.6 µL/min/mg
- half-life at 1 μM [1, 8]: 32 min
- fraction unbound at 5 h [2]: 0.107

SMILES: [2H]C([2H])([2H])NC(=O)c1cnc(Nc2ccc(F)cn2)cc1Nc1nn(C)c2ccn(CC)c(=O)c12 [Example 139, 4-((5-Ethyl-1-methyl-4-oxo-4,5-dihydro-1H-pyrazolo[4,3-c]pyridin-3-yl)amino)-6-((5-fluoropyridin-2-yl)amino)-N-(methyl-d3)nicotinamide]
- IC50 (TYK2-JH2 domain): 0.524 nM
- JAK1/TYK2 selectivity (TYK2-JH2 domain): 23.6
- microsomal CLint at 1 μM [1, 5]: 23.3 µL/min/mg
- half-life at 1 μM [1, 6]: 59.8 min
- fraction unbound at 5 h [2]: 0.039

SMILES: [2H]C([2H])([2H])NC(=O)c1cnc(NC(=O)C2CC2)cc1Nc1ccc2cnn(CC(F)(F)F)c2c1OC [Example 129, 6-(Cyclopropanecarboxamido)-4-((7-methoxy-1-(2,2,2-trifluoroethyl)-1H-indazol-6-yl)amino)-N-(methyl-d3)nicotinamide]
- IC50 (TYK2-JH2 domain): 0.416 nM
- JAK1/TYK2 selectivity (TYK2-JH2 domain): 49.9
- microsomal CLint at 1 μM [1, 3]: 48.6 µL/min/mg
- half-life at 1 μM [1, 4]: 28.5 min
- microsomal CLint at 1 μM [1, 5]: 40 µL/min/mg
- half-life at 1 μM [1, 6]: 34.6 min
- microsomal CLint at 1 μM [1, 7]: 87.4 µL/min/mg
- half-life at 1 μM [1, 8]: 15.9 min
- fraction unbound at 5 h [2]: 0.034
- solubility at 2 h (Kinetic solubility): 13.6 µM (≈ 6.33 µg/mL)
